# Results from patent US9128100B2, “Non-invasive diagnostic method for the evaluation of intestinal lactase deficiency (hypolactasia)” (Venter Pharma, S.L., priority 2012, dated 2015).
# Several values for one entry are separate records, joined by “and”; a condition that tells them apart may be missing. Identical values can stand only once. Entries after “also recorded” stand apart in the source; their conditions may differ.
# Experiments:
# intestinal lactase [1] = target: T1, intestinal lactase (Homo sapiens, UniProt P09848); assay: The three 4-GX tests (4-hour urine, 5-hour urine, blood) taken together; type: in vivo; conditions: all 4-GX tests; after correcting biopsy diagnosis
# T1 construct: after its oral administration it is hydrolysed by the intestinal mucosa enzyme; from tissue; host or cells: small-intestinal mucosa (enterocyte brush border) of living human volunteers and patients, in vivo
# T1 sequence (P09848 869-1927): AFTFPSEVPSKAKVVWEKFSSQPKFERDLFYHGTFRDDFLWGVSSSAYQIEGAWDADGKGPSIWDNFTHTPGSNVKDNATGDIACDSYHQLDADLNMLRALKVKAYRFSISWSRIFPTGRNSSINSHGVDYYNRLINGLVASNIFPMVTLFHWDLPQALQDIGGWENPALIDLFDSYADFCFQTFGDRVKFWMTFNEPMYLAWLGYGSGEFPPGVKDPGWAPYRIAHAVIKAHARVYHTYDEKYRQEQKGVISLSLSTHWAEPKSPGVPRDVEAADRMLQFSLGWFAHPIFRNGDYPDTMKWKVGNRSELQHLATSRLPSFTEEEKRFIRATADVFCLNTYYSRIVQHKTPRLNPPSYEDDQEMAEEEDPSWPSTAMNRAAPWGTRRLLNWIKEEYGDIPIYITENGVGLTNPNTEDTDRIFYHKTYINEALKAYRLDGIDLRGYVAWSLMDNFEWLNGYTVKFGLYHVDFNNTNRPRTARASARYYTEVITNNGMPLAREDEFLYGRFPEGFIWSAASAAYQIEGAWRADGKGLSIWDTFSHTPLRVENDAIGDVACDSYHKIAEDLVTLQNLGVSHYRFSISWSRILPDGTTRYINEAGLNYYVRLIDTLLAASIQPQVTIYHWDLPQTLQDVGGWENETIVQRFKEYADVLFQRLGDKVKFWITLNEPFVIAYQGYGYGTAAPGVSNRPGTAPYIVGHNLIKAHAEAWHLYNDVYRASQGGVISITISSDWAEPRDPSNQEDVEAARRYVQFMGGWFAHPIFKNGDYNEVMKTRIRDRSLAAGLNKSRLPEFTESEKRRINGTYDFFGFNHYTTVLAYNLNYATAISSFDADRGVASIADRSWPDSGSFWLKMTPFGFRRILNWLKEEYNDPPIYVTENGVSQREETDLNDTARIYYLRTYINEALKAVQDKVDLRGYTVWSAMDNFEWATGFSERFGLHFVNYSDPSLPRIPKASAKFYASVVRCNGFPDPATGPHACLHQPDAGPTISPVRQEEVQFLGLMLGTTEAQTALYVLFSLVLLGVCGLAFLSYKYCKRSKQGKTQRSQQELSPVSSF
# Method: (§1) The diagnostic tests to which these patients were subjected were: • Intestinal biopsy: determining intestinal lactase activity therein. • Hydrogen breath test after the oral administration to patients of 50 g of lactose. While this test was being carried out, several capillary-blood glucose test (Glycemia tests) were carried out, calculating the highest increase observed in the blood glucose concentration compared to basal glucose level before starting the test. • 4-GX test in total urine at 0-4 and 0-5 hours, which was orally administered to patients 0.5 g of this product (or 0.45 g in a 4-GX sample including 10 wt % water), collecting the total urine accumulated over 0-4 h and 0-5 h following the administration of 4-GX and determining the amount of excreted xylose in both volumes of urine. • 4-GX test in blood which was orally administered to patients 3 g of this product (or 2.7 g in a 4-GX sample including 10 wt % water) to determine the concentration of plasma xylose in a blood sample 90 minutes after ingestion of the product. The concentration obtained was compared to a basal blood sample extracted before ingestion of 4-GX.
# The 4-GX was orally administered in a single dose dissolved in 100 ml of water. […]
# [2] = Safety and tolerance of the 4-GX doses; type: in vivo, human; conditions: all doses of 4-GX used (0.125 g to 6 g oral)
# Method: Two groups of subjects were selected. […] Firstly, the lowest suitable oral dose of 4-GX administered to healthy volunteers was determined that enabled reliable detection (in terms of accuracy and reproducibility) of xylose levels in urine and blood via the analytical method to be used. In addition, the tolerance of these subjects to the various doses of 4-GX used in the test and the pharmacokinetics for each dose administered were analysed, both in urine and blood. The doses of 4-GX used were: 0.125 g, 0.250 g, 0.5 g, 1 g, 3 g and 6 g in addition to placebo in 12 healthy volunteers with washout period between doses of between three and seven days. It should be appreciated that the 4-GX doses can include small quantities of water which remain subsequent to the drying process of the 4-GX product. For example, the 4-GX product can contain about 8 wt % to about 12 wt %, most likely about 10 wt % water, based on the total weight of the product. Accordingly, the aforementioned 4-GX doses administered would actually include 0.1125 g, 0.225 g, 0.45 g, 0.9 g, 2.7 g and 5.4 g of actual 4-GX product, respectively, if they contain 10 wt % water. […] In each study period, an ascending dose of 4-GX was administered and the serum and urine concentrations of xylose were measured at various times up to 8 hours following the administration of the drug.
# intestinal lactase [3] = target: T1, intestinal lactase; assay: 4-GX test in 4-hour urine, patients with symptoms suggestive of lactose intolerance; type: in vivo
# Method: as §1
# (§2) The 4-GX was orally administered in a single dose dissolved in 100 ml of water.
# (§3) From here on, the optimum dose of 0.5 g of 4-GX (or 0.45 g in a 4-GX sample including 10 wt % water) was used in the 4-GX urine test for the diagnosis of intestinal lactase deficiency by the non-invasive method described in the present invention. This dose was dissolved in 100 ml water, and following the test protocol, 2 samples of urine excreted during the 5 hours following the administration of the drug were taken, in two interval groups: at 4 hours following administration of 4-GX and at 5 hours following administration of 4-GX.
# (§4) From the data obtained from the various urine tests for intestinal lactase deficiency following oral ingestion of 4-GX described in the present invention, a descriptive statistical analysis was performed of the amount of xylose excreted in the urine up to 4 hours and up to 5 hours following said administration. The same was done with the blodd test for intestinal lactase activity following oral ingestion of 4-GX, where descriptive statistical analysis was performed on the amount of xylose present in the plasma of subjects at 90 minutes following administration of 4-GX. The net increase in the plasma xylose concentration compared to basal values was also calculated.
# (§5) To obtain the statistical parameters of lactase determination using the various 4-GX tests described in the present invention and later to compare them with the results obtained from the intestinal biopsy test, hydrogen in exhaled air test and capillary-blood glucose test, the normal limits of the measurement of the total amount of xylose excreted in 4-hour and 5-hour urine and the concentration of blood xylose after 90 minutes following ingestion of 4-GX described in Table 5 were used. The normal limits for the other tests were those used in common clinical practice for the diagnosis of lactose intolerance (Arola, H. (1994) Diagnosis of hypolactasia and lactose malabsorption. Scand. J. Gastroenterol. […] (Suppl), 26-35), which are:
# (§6) For the measurement of lactase by intestinal biopsy, the lower normal limit is established at 10 units/g protein, with values less than this being considered positive.
# intestinal lactase [4] = target: T1, intestinal lactase; assay: 4-GX test in 5-hour urine, patients with symptoms suggestive of lactose intolerance; type: in vivo
# Method: as §1, §2, §3, §4, §5, §6
# [5] = 0.5 g 4-GX, 0-4 h urine, cut-off 27.58 mg, 205 patients
# [6] = 0.5 g 4-GX, 4-hour urine, lactase in intestinal biopsy as gold standard
# [7] = 4-hour urine, after correcting biopsy diagnosis
# [8] = 4-hour urine, after correction of the biopsy diagnostic result (five discrepancies)
# [9] = 4-hour urine, after correction of the biopsy diagnostic result (four discrepancies)
# [10] = 4-hour urine, biopsy as gold standard
# [11] = 4-hour urine, final criteria of Table 9
# [12] = 0.5 g 4-GX, 0-5 h urine, cut-off 37.87 mg, 205 patients
# [13] = 0.5 g 4-GX, 5-hour urine, lactase in intestinal biopsy as gold standard
# [14] = 5-hour urine, after correcting biopsy diagnosis
# [15] = 5-hour urine, after correction of the biopsy diagnostic result (five discrepancies)
# [16] = 5-hour urine, after correction of the biopsy diagnostic result (four discrepancies)
# [17] = 5-hour urine, biopsy as gold standard
# [18] = 5-hour urine, final criteria of Table 9
structure (smiles),measurement,setting,value
"O=C[C@H](O)[C@@H](O)[C@@H](CO)O[C@@H]1O[C@H](CO)[C@H](O)[C@H](O)[C@H]1O [4-GX, 4-O-β-galactopyranosyl-D-xylose]","recalculated values for sensitivity, specificity, positive and negative predictive values",intestinal lactase [1],above 95%
same,"adverse reactions, safety and tolerance",[2],safe and innocuous; also recorded: no clinically significant adverse reactions were found
same,No. Negative,intestinal lactase [3]; [5],100
same,No. Positive (patients presenting intestinal lactase deficiency),intestinal lactase [3]; [5],105
same,Percentage of patients negative,intestinal lactase [3]; [5],49%
same,Percentage of patients positive,intestinal lactase [3]; [5],51.2% and 51%
same,Negative predictive value,intestinal lactase [3]; [6],90%
same,Positive predictive value,intestinal lactase [3]; [6],93.3% and 93.33%
same,Sensitivity,intestinal lactase [3]; [6],90.7% and 90.74%
same,Specificity,intestinal lactase [3]; [6],92.8% and 92.78%
same,sensitivity calculated using the ROC curves,intestinal lactase [3]; 4-hour urine samples,90.7%
same,specificity calculated using the ROC curves,intestinal lactase [3]; 4-hour urine samples,93.8%
same,"range of recalculated sensitivity, specificity, positive and negative predictive values","intestinal lactase [3]; 4-hour urine test, after correcting biopsy diagnosis",96.00-98.10
same,false negatives,intestinal lactase [3]; [7],3.74%
same,negative likelihood ratio,intestinal lactase [3]; [7],0.038
same,positive likelihood ratio,intestinal lactase [3]; [7],47.168
same,Negative predictive value,intestinal lactase [3]; [8],96.00%
same,Positive predictive value,intestinal lactase [3]; [8],98.10%
same,Sensitivity,intestinal lactase [3]; [8],96.26%
same,Specificity,intestinal lactase [3]; [8],97.96%
same,Negative predictive value,intestinal lactase [3]; [9],97.00%
same,Positive predictive value,intestinal lactase [3]; [9],99.05%
same,Sensitivity,intestinal lactase [3]; [9],97.20%
same,Specificity,intestinal lactase [3]; [9],98.98%
same,area under the ROC curve,intestinal lactase [3]; [10],0.9282
same,false negatives,intestinal lactase [3]; [10],9.3%
same,false positives,intestinal lactase [3]; [10],7.2%
same,"concordant positive results, percentage",intestinal lactase [3]; [11],96.3%
same,final number of concordant positive results,intestinal lactase [3]; [11],103
same,"negative results (concordant), percentage",intestinal lactase [3]; [11],98.0%
same,number of negative results (concordant),intestinal lactase [3]; [11],96
same,No. Negative,intestinal lactase [4]; [12],96
same,No. Positive (patients presenting intestinal lactase deficiency),intestinal lactase [4]; [12],109
same,Percentage of patients negative,intestinal lactase [4]; [12],47%
same,Percentage of patients positive,intestinal lactase [4]; [12],53.2% and 53%
same,Negative predictive value,intestinal lactase [4]; [13],92.7% and 92.71%
same,Positive predictive value,intestinal lactase [4]; [13],92.7% and 92.66%
same,Sensitivity,intestinal lactase [4]; [13],93.5% and 93.52%
same,Specificity,intestinal lactase [4]; [13],91.8% and 91.75%
same,sensitivity calculated using the ROC curves,intestinal lactase [4]; 5-hour urine samples,93.5%
same,specificity calculated using the ROC curves,intestinal lactase [4]; 5-hour urine samples,91.8%
same,"range of recalculated sensitivity, specificity, positive and negative predictive values","intestinal lactase [4]; 5-hour urine test, after correcting biopsy diagnosis",96.94-99.07
same,false negatives,intestinal lactase [4]; [14],0.93%
same,negative likelihood ratio,intestinal lactase [4]; [14],0.010
same,positive likelihood ratio,intestinal lactase [4]; [14],32.361
same,Negative predictive value,intestinal lactase [4]; [15],98.96%
same,Positive predictive value,intestinal lactase [4]; [15],97.25%
same,Sensitivity,intestinal lactase [4]; [15],99.07%
same,Specificity,intestinal lactase [4]; [15],96.94%
same,Negative predictive value,intestinal lactase [4]; [16],100.00%
same,Positive predictive value,intestinal lactase [4]; [16],98.17%
same,Sensitivity,intestinal lactase [4]; [16],100.00%
same,Specificity,intestinal lactase [4]; [16],97.96%
same,area under the ROC curve,intestinal lactase [4]; [17],0.9315
same,false negatives,intestinal lactase [4]; [17],6.5%
same,false positives,intestinal lactase [4]; [17],8.2%
same,"concordant positive results, percentage",intestinal lactase [4]; [18],99.1%
same,final number of concordant positive results,intestinal lactase [4]; [18],106
same,"negative results (concordant), percentage",intestinal lactase [4]; [18],96.9%
same,number of negative results (concordant),intestinal lactase [4]; [18],95
